From patent US20200352880A1 (priority 2019, published 2020)

Columns and labels:
[1] = tested on: E44; assay: killing of E44 by phagocytosis in dHL60 cells after CHRNA7 siRNA silencing; format: cell-based, E. coli; settings: MEM dose up to 50 μM
Method: FIGS. 5A, 5B, 5C, and 5D illustrate the influence on phagocytosis by PMNs after gene silencing of CHRNA7 and S100A9. 2×10^6/ml HL60 cells are treated with 1.3% DMSO for cell stimulation and induction, and cell morphology is observed under an inverted microscope after 4-5 days. Compared to the control group, the cell volume gradually enlarges, granulocyte nuclear shapes such as kidney-shaped (banded) nucleus, segmented (multi-lobed) nucleus, bean-shaped nucleus appear after 48 hours and gradually increase over time. Cell status of each experimental group is identified using Typan Blue Exclusion Test and Wright-Giemsa Stain Method to meet the requirements for cell quality in follow-up studies. Differentiated neutrophils are added with CHRNA7 and S100A9siRNA, respectively, and treated with lipofectamine 2000 in 24-well plates, a supplemental complete cell culture medium is added after 6 hours to incubate for 48 hours, and the expression of CHRNA7 and S100A9 in differentiated HL60 (dHL60) cells is examined. Control siRNA acts as the control group, and GAPDH represents the housekeeping gene.
Samples are prepared by the dHL60 cells and E44 in a ratio of 1:5 and allowed to interact for 1 hour.

[2] = tested on: mouse BMECs; assay: gene expression profile of E44-infected BMECs by Next Generation Sequencing; format: cell-based; settings: E44 infection 0.5 hours
Method: After the mouse BMECs are infected with E44 for 0.5 hours, the cells are collected to extract RNA, which is sent to Hua-Da Company (China) for Next Generation Sequencing analysis.
After the mouse BMECs are infected with E44 for 0.5 hours, the cells are collected to extract RNA, which is sent to Hua-Da Company (China) to analyze alterations on gene expression profile using Next Generation Sequencing and look for differentially expressed genes, a total of 978 differentially expressed genes are found.

[3] = tested on: E44; assay: killing, NET trapping and phagocytosis of E44 by neutrophils; format: cell-based, E. coli
Method: (§1) The bactericidal functions of neutrophils include phagocytosis and NET-mediated killing. […] Experiments are performed according to the procedures described in Reference 2. […] The bacteria are collected and spread over Brain Heart Infusion (BHI) agar plates containing rifampin and allowed to culture for 12-16 hours, then the number of bacterial colonies of each sample is counted. […] After 1-hour incubation, the samples are centrifuged, collected, and mounted on microscope slides, which are sealed after DAPI staining, then phagocytosis of PMNs is observed and phagocytized particles are counted under a fluorescence microscope. […] However, early phagocytosis is not accompanied by a significant change in PMN structure when MOI<50. When MOI>50, each PMN on average includes at least 50 E44, a significant nuclear morphological change occurs.

[4] = tested on: α7nAChR and S100A9; assay: immunofluorescence of α7nAChR and S100A9 in PMNs incubated with E44; format: cell-based; settings: PMNs with bacteria (E44), compared to bacteria groups
Method: The next step is to further examine whether alpha7 nicotinic acetylcholine receptor (α7nAChR) is associated with antimicrobial protein S100A9 during the process of phagocytizing E44 by PMNs. […] Next, an immunofluorescence staining test is performed on the samples as follows: a primary antibody is added to incubate with α7nAChR and S100A9 overnight at 4° C., and then the corresponding FITC and PE-conjugated secondary antibodies are added to incubate for 1 hour at room temperature, after mounting the samples on microscope slides with DAPI sealing, positioning and expression of α7nAChR and S100A9 are observed under a fluorescence microscope. Compared to the control group, S100A9 (red) is redistributed to the cell edge and area around the nucleus (FIG. 6) after infected with E44, it is observed that α7nAChR (green) and S100A9 (red) are located in the same position with presenting of colocalization, and the expression of both is elevated, α7nAChR (green) and S100A9 (red) also appear to have a high degree of colocalization(R close to 1) after ImageJ software analysis.

[5] = tested on: E44; assay: spread of E44 in infected mice (bacterial counts in blood, livers, lungs, spleens); format: in vivo, C57 mice; settings: MEM 5-10 μg/g body weight intraperitoneally, 24 hours
Method: After 24 hours of E44 infection, the mice are dissected to obtain blood, livers, lungs, and spleens under aseptic condition. The obtained blood, after performing an appropriate serial dilution, is spread over BHI (containing rifampin) agar plates. The obtained livers, lungs, and spleens are precisely weighed, added with pre-cooled sterile PBS in a ratio of 0.1 g/ml, and fully homogenized. The homogenates, after performing an appropriate serial dilution, are spread over BHI (containing rifampin) agar plates.
After confirming that MEM may enhance NET formation in bacteria-infected mice, whether MEM may block the spread of bacteria in mice is discussed. […] After 24 hours of bacterial infection, the mice are dissected to obtain blood, livers, lungs, and spleens under aseptic condition for bacterial count determination.

[6] = tested on: cBMECs; assay: number of circulating brain microvascular endothelial cells (cBMECs) in blood; settings: in vivo
Method: The protocol is prepared as follows:
According to manufacturer's instructions, Dynabeads M-450 solution with a final concentration of 4×10^8 beads/ml is prepared by Hank's Balanced Salt Solution. BMECs in brain tissues and blood are isolated using UEA I. The BMECs from the brain tissues are cultured with RPMI-1640 medium containing 10% fetal bovine serum and identified using CD146 and Mfsd2a antibodies.

[7] = tested on: MRSA; assay: killing of MRSA by neutrophils; format: cell-based, methicillin-resistant Staphylococcus aureus; settings: increased concentration of MEM (1-25 μM); concentration-dependent
Method: as §1
(§2) Experimental procedures of MEM enhancing NET formation and facilitating killing of MRSA by neutrophils are the same as described previously.

[8] = tested on: PMNs; assay: immunofluorescence of MPO, S100A9 and DNA in PMNs (NET formation); format: cell-based; settings: PMA groups and E44 groups treated with MEM
[9] = tested on: E44; assay: NET formation in E44-infected mice (serum free DNA and NE); format: in vivo, C57 mice; settings: MEM 5-10 μg/g body weight intraperitoneally, 24 hours
Method: After 24 hours, serum is obtained from blood samples collected from hearts, and the amounts of free DNA and neutrophil elastase (NE) in the serum of each mouse are determined using PicoGreen and Mouse PMN Elastase ELISA Kit (R&D Systems) respectively.

[10] = tested on: neutrophils; assay: E44-induced NET formation: DNA release (PicoGreen) and neutrophil elastase (NETosis Assay Kit) from neutrophils; format: cell-based; settings: concentration-dependent
Text: (§3) Since DNA is a major component of NETs, NET formation is first examined by determining the amount of DNA released from neutrophils. […] Methods are described in Reference 1.
The methods of neutrophil isolation and preparation are similar to those described previously, and the amount of NE is detected by following kit instructions.

[11] = tested on: neutrophils; assay: MRSA-induced NET formation (release of neutrophil DNA); format: cell-based
Text: as §3, §2

[12] = target: α7nAChR (Homo sapiens, UniProt P36544); settings: cited from earlier work
α7nAChR, sequence (P36544 23-502): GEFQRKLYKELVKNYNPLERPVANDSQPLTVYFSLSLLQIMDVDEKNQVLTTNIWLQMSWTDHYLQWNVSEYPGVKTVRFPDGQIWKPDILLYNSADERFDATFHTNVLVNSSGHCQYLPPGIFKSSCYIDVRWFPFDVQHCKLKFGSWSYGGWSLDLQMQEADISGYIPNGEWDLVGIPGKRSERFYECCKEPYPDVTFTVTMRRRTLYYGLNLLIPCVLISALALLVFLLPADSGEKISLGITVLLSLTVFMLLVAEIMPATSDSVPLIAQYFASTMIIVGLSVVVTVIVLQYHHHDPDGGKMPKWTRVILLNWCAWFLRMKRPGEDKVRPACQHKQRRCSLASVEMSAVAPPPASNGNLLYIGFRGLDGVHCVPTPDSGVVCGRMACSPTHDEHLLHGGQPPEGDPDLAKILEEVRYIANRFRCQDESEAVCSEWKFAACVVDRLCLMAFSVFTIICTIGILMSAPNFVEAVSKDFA

In the case of `C[C@]12C[C@@H]3C[C@](C)(C1)C[C@@](N)(C3)C2.Cl` [MEM, 3,5-Dimethyl-1-aminoadamantane hydrochloride], the “effect of MEM on phagocytizing bacteria by PMNs after CHRNA7 down-regulation” value [1] is reported as “not obvious”, the “E44-induced alterations on gene expression” value [2] is reported as “reverse” and the “anti-inflammatory genes IL-33, IL-18rap, MMP10, Irs1 expression” value [2] is reported as “significantly up-regulate”. For the same molecule, the “pro-inflammatory genes A20, CISH, Ptgds, ZEP36 expression” value [2] was “down-regulate”, the “phagocytosis of E44 by PMNs” value ([3]; 50 μM MEM, E44 MOI=1, 5, 50, 100, 1-hour incubation, versus E44 groups) was “more E44 are phagocytized” and the “NETs trapping of E44” value ([3]; DNase used to dissolve DNA) was “concentration-dependently enhance”. The “killing of E44 by neutrophils, including phagocytosis and NET-mediated killing” value ([3]; E44 MOI=10, MEM 0, 10, 20, 50 μM, 2 hours, with or without Cytochalasin D) was “concentration-dependently enhance”, the “degree of colocalization of α7nAChR and S100A9” value [4] was “remarkably reduced” and the “expression of α7nAChR and S100A9” value [4] was “significantly decreased”. The “spread of bacteria (E44) in mice” value [5] was “significantly block”, the “number of cBMECs in blood” value [6] was “reduce” and the “survival rate of MRSA” value [7] was “gradually decreases”. For the same molecule, the “MPO, S100A9 and DNA formation (NET formation)” value [8] was “a large number of MPO (green), S100A9 (red), and DNA (blue) are formed”, the “NE in the blood (serum) of E44-infected mice” value [9] was “significantly enhance” and the “free DNA in the blood (serum) of E44-infected mice” value [9] was “significantly enhance”. For the same molecule, the “release of DNA from neutrophils under the effect of E44” value ([10]; E44 MOI=10, different concentrations of MEM, 4 hours) was “significantly enhanced”, the “production of neutrophil elastase (NE) under the effect of E44” value ([10]; E44 with addition of MEM) was “significantly increased” and the “release of neutrophil DNA under the effect of MRSA” value [11] was “significantly enhance”. The “inhibitory effect on α7nAChR compared with inhibitory effect on NMDAR” value [12] was “stronger”.
